# Assay results from ChEMBL document CHEMBL1143729, “Biotransformation of polymethoxylated flavonoids: access to their 4'-O-demethylated metabolites” (J Nat Prod, 2007).
# Tested on: Aspergillus niger
# Experiment: Inhibition of CYP450-mediated tangeretin demethylation in Aspergillus niger ATCC 9142 assessed as relative activity at 0.5 mM
row,relative activity [%],SMILES
1,0,CC1=CC(=O)c2ccccc2C1=O
2,40,CC(C)(C(=O)c1cccnc1)c1cccnc1
3,0,CCCC(C(=O)OCCN(CC)CC)(c1ccccc1)c1ccccc1
4,10,Clc1ccc(COC(Cn2ccnc2)c2ccc(Cl)cc2Cl)c(Cl)c1 (centres undefined)
